The text below walks through data of PMC6611404 (Frontiers in Aging Neuroscience, 2019).

The term IC50 denotes the concentration that gives 50% inhibition. In general, inhibition refers to the relative decrease from the control value, in per cent. Broadly, the LD50 is the dose at which mortality reaches 50%. As a reminder, the EC50 is the concentration at which the effect is half-maximal. Read a low EC50 as an effect from little substance. One may read the Ki as a dissociation constant, usually derived from enzyme kinetics or from competition with a known ligand. Read a high Ki as weaker binding.

The target in data set [1] is T1, AChE from human erythrocytes (Homo sapiens, UniProt P22303).
T1 construct: AChE from human erythrocytes; purchased Sigma Aldrich; host or cells: human erythrocytes (natural source)
T1 sequence (P22303 other isoform, or with tags, fused parts or gaps): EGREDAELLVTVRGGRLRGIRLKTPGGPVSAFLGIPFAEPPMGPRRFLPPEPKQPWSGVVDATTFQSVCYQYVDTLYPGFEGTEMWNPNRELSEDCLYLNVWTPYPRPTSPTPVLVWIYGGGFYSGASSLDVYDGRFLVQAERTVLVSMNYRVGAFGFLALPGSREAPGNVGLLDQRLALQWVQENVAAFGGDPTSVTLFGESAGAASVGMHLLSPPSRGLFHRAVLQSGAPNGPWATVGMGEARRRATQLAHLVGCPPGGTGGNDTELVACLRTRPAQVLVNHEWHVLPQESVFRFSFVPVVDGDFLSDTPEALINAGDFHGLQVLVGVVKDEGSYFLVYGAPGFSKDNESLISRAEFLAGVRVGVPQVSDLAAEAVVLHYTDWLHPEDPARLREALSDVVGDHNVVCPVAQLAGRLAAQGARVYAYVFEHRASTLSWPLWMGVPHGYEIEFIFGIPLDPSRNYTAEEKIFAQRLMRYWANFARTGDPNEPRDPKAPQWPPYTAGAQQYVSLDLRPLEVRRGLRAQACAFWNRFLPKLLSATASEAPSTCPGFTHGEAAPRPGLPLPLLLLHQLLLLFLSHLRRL
Put plainly: biochemical. As to conditions: for IC50: n = 2, read-out: (h)AChE IC50; for inhibition at 1 µM: read-out: (h)AChE % inhibition at 10^−6M. On the procedure:
Acetylthiocholine iodide and 5,5-dithiobis-(2-nitrobenzoic) acid (DTNB) were purchased from Sigma Aldrich. AChE from human erythrocytes (buffered aqueous solution, ≥500 units/mg protein (BCA), Sigma Aldrich) was diluted in 20 mM HEPES buffer pH 8, 0.1% Triton X-100 such as to have enzyme solution with 0.25 unit/mL enzyme activity. In the procedure, 100 μL of 0.3 mM DTNB dissolved in phosphate buffer pH 7.4 was added into the 96-well plate followed by 50 μL of test compound solution and 50 μL of enzyme (0.05 U final). After 5 min of preincubation at 25°C, the reaction was then initiated by the injection of 50 μL of 10 mM acetylthiocholine iodide solution. […] Assays were performed with a blank containing all components except acetylthiocholine, in order to account for non-enzymatic reaction. The reaction slopes were compared and the percent inhibition due to the presence of test compounds was calculated by the following expression: 100 − (vi/v0 × 100) where vi is the rate calculated in the presence of inhibitor and v0 is the enzyme activity.

Data set [2] deals with T2, Human 5-HT4R (Homo sapiens, UniProt Q13639).
T2 construct: purchased Eurofins HTS110M
T2 sequence (Q13639 whole entry): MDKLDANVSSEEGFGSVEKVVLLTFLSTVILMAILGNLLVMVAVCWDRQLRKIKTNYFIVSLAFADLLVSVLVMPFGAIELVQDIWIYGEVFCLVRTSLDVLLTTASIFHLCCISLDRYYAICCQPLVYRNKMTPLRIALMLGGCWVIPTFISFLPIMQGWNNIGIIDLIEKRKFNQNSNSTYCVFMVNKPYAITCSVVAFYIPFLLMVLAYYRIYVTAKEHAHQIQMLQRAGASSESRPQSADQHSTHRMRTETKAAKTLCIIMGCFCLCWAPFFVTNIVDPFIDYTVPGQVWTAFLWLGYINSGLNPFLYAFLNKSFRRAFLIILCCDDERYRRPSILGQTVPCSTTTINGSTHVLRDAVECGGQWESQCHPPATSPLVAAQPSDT
As to the kind of experiment: [3H]-GR113808 competition binding on 5-HT4(b) membrane preparations. As to conditions: for inhibition: 0.2 nM [3H]-GR113808. How it is done:
At the end of the incubation, homogenates were filtered through Whatman GF/C filters (Alpha Biotech) presoaked with 0.5% polyethylenimine using a Brandel cell harvester. Filters were subsequently washed three times with 1 mL of ice-cold 25 mM Tris buffer (pH 7.4, 4°C). Non-specific binding was evaluated in parallel in the presence of 30 μM serotonin.
(§1) For some of these compounds, affinity constants were calculated from five-point inhibition curves using the GraphPad Prism 6 software and expressed as Ki ± SD.

For data set [3], the target named is T3, human 5-HT6 receptors (Homo sapiens, UniProt P50406).
T3 construct: purchased Perkin Elmer RBHS6M; host or cells: HEK-293 cells, transient expression (membranes)
T3 sequence (P50406 whole entry): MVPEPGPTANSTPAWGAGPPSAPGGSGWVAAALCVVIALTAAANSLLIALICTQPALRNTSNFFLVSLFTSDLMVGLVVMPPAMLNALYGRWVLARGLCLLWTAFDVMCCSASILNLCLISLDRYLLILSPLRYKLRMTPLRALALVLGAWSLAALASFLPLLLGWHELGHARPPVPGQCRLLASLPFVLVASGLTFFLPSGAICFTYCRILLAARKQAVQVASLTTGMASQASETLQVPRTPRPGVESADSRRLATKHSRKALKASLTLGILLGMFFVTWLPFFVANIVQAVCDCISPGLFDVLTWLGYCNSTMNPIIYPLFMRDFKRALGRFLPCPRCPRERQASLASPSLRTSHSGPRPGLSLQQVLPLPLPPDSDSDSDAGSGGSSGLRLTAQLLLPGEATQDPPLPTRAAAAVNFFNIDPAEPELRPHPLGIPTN
As to the kind of experiment: [3H]-LSD competition binding on membranes of HEK-293 cells expressing human 5-HT6 receptors. As to conditions: for inhibition: 2.5 nM [3H]-LSD. On the procedure:
Drugs were evaluated through their possibility to compete for the binding of [^3H]-LSD on membranes of HEK-293 cells transiently expressing the human 5-HT6 receptors (ref. RBHS6M, Perkin Elmer). […] At the end of the incubation, the homogenates were then filtered through Whatman GF/C filters and washed five times with ice-cold 25 mM Tris-HCl buffer. Non-specific binding was evaluated in the presence of 100 μM serotonin. Radioactivity associated to proteins was then quantified and expressed as the percentage of inhibition of the drugs under study.
as §1

Data set [4] relates to mice. Put plainly: CNS-activity and acute toxicity test. To be noted: mice, intraperitoneal. How it is done: (§2) Adult male NMRI mice (3 months old, weighing 35–40 g) from Janvier labs (Le Genest-Saint-Isle, France) were used to perform experiments. Mice were housed by ten in standard polycarbonate cages in standard controlled conditions (22 ± 2°C, 55 ± 10% humidity) with a reversed 12 h light/dark cycle (light on at 7 pm). Food and water were available ad libitum in the home cage.
(§3) The approximate DL50 of the compounds were also calculated through the quantification of mortality after 24 h. Amphetamine (2 mg/kg), chlorpromazine (10 mg/kg) were used as a stimulant and depressive references, respectively.
(§4) Amphetamine, (+)-α-Methylphenethylamine hemisulfate, chlorpromazine hydrochloride, imipramine hydrochloride and scopolamine hydrobromide were purchased from Sigma (France). All those pharmacological compounds were dissolved in NaCl 0.9% as the vehicle were administered IP 30 min before tests, except scopolamine which was subcutaneously administered 20 min before spontaneous alternation test.

In data set [5] the target is T4, (h)5-HT6R (Homo sapiens, UniProt P50406).
T4 construct: HA; expressed in transfected cells; host or cells: COS-7 cells, transient electroporation
T4 sequence (P50406 whole entry): as above
As to the kind of experiment: Blockade of the 5-HT6R-induced cAMP production in transfected COS-7 cells. The class given is cell-based. To be noted: for (h)5-HT6R % control antagonist response: SB271046 as control 5-HT6R antagonist, n = 2. On the procedure: (§5) COS-7 cells were grown in Dulbecco’s modified Eagle medium (DMEM) supplemented with 10% dialyzed fetal calf serum (dFCS) and antibiotics. Cells were transiently transfected by electroporation with plasmids encoding HA-tagged 5-HT4R (100 ng/10^6 cells) or HA-tagged 5-HT6R (70 ng/10^6 cells or 300 ng/10^6 cells), then seeded in 96-well plates (16,000 cells/well).
Blockade of the 5-HT6R-induced cAMP production: 24 h after transfection, cells were exposed to the indicated concentrations of 5-HT6R ligands at 37°C in 50 μL of HBS. […] After 10 min at 37°C, cells were then lysed by addition of 100 μL of Triton-X100 (0.1%).
(§6) Quantification of cAMP production was performed by HTRF® by using the cAMP Dynamic kit (Cisbio Bioassays) according to the manufacturer’s instructions.

Data set [6] concerns the target T4, (h)5-HT6R. Put plainly: Reversion of the basal 5-HT6R-induced cAMP production (constitutive activity) in COS-7 cells. In kind it is cell-based. As to conditions: for cAMP production in the absence of agonist (inverse agonist activity): 10^−4M, absence of 5-HT; for (h)5-HT6R Profile: cAMP. On the procedure:
as §5
Reversion of the basal 5-HT6R-induced cAMP production: the 5-HT6R expression was augmented by transfection of higher quantities of cDNA (300 ng/10^6 cells) to increase the basal cAMP production linked to the constitutive activity of the receptor. […] This experiment is performed in the absence of 5-HT. After 10 min at 37°C, cells were then lysed by addition of 100 μL of Triton-X100 (0.1%).
as §6
(In general: Cyclic AMP is a second messenger, typically raised through Gs and lowered through Gi signalling.)

Data set [7] in a line: CNS-activity and acute toxicity test. As to conditions: male, NMRI, mouse, in vivo, ip. How it is done:
as §2, §3, §4

For data set [8], the target named is T5, (h)5-HT4(a)R (Homo sapiens, UniProt Q13639).
T5 construct: HA; expressed in transfected cells; host or cells: COS-7 cells, transient electroporation
T5 sequence (Q13639 1-387 isoform Q13639-2): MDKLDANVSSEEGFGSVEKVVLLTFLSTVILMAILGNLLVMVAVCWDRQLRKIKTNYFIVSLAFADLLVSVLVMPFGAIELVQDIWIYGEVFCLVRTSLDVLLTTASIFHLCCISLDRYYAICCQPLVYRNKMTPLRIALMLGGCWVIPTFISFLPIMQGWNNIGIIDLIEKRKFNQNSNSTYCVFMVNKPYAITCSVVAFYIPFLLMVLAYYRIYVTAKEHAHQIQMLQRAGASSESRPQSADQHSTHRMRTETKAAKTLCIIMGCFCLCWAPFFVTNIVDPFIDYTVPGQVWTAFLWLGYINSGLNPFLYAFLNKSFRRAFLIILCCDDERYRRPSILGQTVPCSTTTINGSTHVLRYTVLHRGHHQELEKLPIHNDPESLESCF
As to the kind of experiment: 5-HT4R-induced cAMP production in transfected COS-7 cells. In kind it is cell-based. How it is done: as §5
After 10 min, cells were then lysed by addition of the same volume of Triton-X100 (0.1%).
as §6

In data set [9] the test system is mice. As to the kind of experiment: Spatial working memory: scopolamine-induced deficit of spontaneous alternation in the Y maze. In kind it is in vivo, NMRI mice. As to conditions: IP 30 min before test, 0.3, 1, 3 mg/kg, scopolamine 0.5 mg/kg SC, effect at doses starting from 0.3 mg/kg. How it is done: as §2
An arm entry was scored when all four feet crossed into the arm. An alternation was defined as entries into all three arms on a consecutive occasion.
as §4

For data set [10], the system named is mice. As to the kind of experiment: Locomotor activity (actimeter). The class given is in vivo. To be noted: IP 30 min before test, 1, 3 and 10 mg/kg, 30 min recording. How it is done: as §2, §4
[11] abbreviates: read-out: (h)5-HT4R % inhibition at 10^−6M, 10^−6M.
Where [12] appears, read: read-out: (h)5-HT4R % inhibition at 10^−8M, 10^−8M.
[13] abbreviates: read-out: (h)5-HT6R % inhibition at 10^−6M, 10^−6M.
Setting [14] is: read-out: (h)5-HT6R % inhibition at 10^−8M, 10^−8M.

Entries after “also recorded” stand apart in the source; their conditions may differ. Where a name gives a salt, the structure may show the parent alone. Read-outs that look alike come from different tables or passages of the source. A value given as a limit tells only on which side of the number the result lay.

Regarding `COc1cc(N)c(Cl)cc1C(=O)CCC1CCN(Cc2ccc(O)cc2)CC1` [5p, 1-(4-Amino-5-chloro-2-methoxyphenyl)-3-(1-(4-hydroxybenzyl)piperidin-4-yl)propan-1-one], in [1], the IC50 was determined as 6 ± 0.4 nM. Further, the inhibition at 1 µM in data set [1] was determined as 98%. For the same compound, the inhibition turned out to be 100% in [2] (setting [11]), 23% in [2] (setting [12]), 24% in data set [3] (setting [13]) and 0% in [3] (setting [14]).
On to `COc1cc(N)c(Cl)cc1C(=O)CCC1CCN(Cc2ccc(C)cc2)CC1` [5q, 1-(4-Amino-5-chloro-2-methoxyphenyl)-3-(1-(4-methylbenzyl)piperidin-4-yl)propan-1-one], for which the IC50 in [1] came out at 450 nM. The inhibition at 1 µM in [1] came out at 87%. The inhibition in data set [2] (setting [11]) turned out to be 100%; in data set [2] (setting [12]) it was 24%; in [3] (setting [13]) it was 21%; in [3] (setting [14]), 21%.
Regarding `COc1cc(N)c(Cl)cc1C(=O)CCC1CCN(Cc2cc(NC(C)=O)ccc2Br)CC1` [5r, N-(3-((4-(3-(4-Amino-5-chloro-2-methoxyphenyl)-3-oxopropyl)piperidin-1-yl)methyl)-4-bromophenyl) acetamide], the inhibition at 1 µM in data set [1] is 13%. The inhibition came to 96% in [2] (setting [11]), 6% in data set [2] (setting [12]), 35% in data set [3] (setting [13]) and 7% in data set [3] (setting [14]).
Regarding `COc1cc(N)c(Cl)cc1C(=O)CCC1CCN(Cc2cc([N+](=O)[O-])ccc2F)CC1` [5s, 1-(4-Amino-5-chloro-2-methoxyphenyl)-3-(1-(2-fluoro-5-nitrobenzyl)piperidin-4-yl)propan-1-one], the inhibition at 1 µM in data set [1] amounted to 63%. Further, the inhibition was determined as 62% in [2] (setting [11]), 4% in data set [2] (setting [12]), 18% in data set [3] (setting [13]) and 5% in data set [3] (setting [14]).
Turning to `COc1cc(N)c(Cl)cc1C(=O)CCC1CCN(Cc2cc(N)ccc2F)CC1` [5t, 1-(4-Amino-5-chloro-2-methoxyphenyl)-3-(1-(5-amino-2-fluorobenzyl)piperidin-4-yl)propan-1-one], the IC50 in data set [1] was determined as 153 ± 19.9 nM. The inhibition at 1 µM in data set [1] stood at 79%. Moreover, the inhibition came out at 98% in data set [2] (setting [11]), 18% in data set [2] (setting [12]), 65% in [3] (setting [13]) and 3% in [3] (setting [14]).
As for `C[C@H](N)Cc1ccccc1` [Amphetamine, (+)-α-Methylphenethylamine hemisulfate], the “Symptoms (subtoxic doses)” value in [4] (2 mg/kg, stimulant reference) is on record as “Hyperactivity; also recorded: Exopthalmy; also recorded: Irritability”.
Regarding `CN(C)CCCN1c2ccccc2Sc2ccc(Cl)cc21` [Chlorpromazine, chlorpromazine hydrochloride], the “Symptoms (subtoxic doses)” value in data set [4] (10 mg/kg, depressive reference) is on record as “Hypoactivity; also recorded: Ataxia; also recorded: Sleep”.
Regarding `Fc1ccc2c(CCNCc3cccc(OCC(F)(F)C(F)F)c3)c[nH]c2c1` [compound 2, idalopirdine, reference compound], the “(h)5-HT6R % control antagonist response” value in data set [5] is reported as 101.2 ± 3.2 n = 2%. Further, in [6], the “cAMP production in the absence of agonist (inverse agonist activity)” value is on record as “decreased cAMP production below the basal” and the “(h)5-HT6R Profile” value is “Inverse agonist”. Also, the inhibition in data set [3] (setting [14]) turned out to be 88%.
On to `COc1cc(N)c(Cl)cc1C(=O)CCC1CCN(Cc2cccc(C)c2)CC1.O=C(O)/C=C/C(=O)O` [compound 10, 1-(4-Amino-5-chloro-2-methoxyphenyl)-3-(1-(3-methylbenzyl)piperidin-4-yl)propan-1-one fumaric acid salt], for which the “Symptoms (subtoxic doses)” value in [4] (1–10–100 mg/kg) is listed as “did not show any deleterious signs; also recorded: No symptoms”. Besides, the LD50 at 24 h in [7] is > 100 mg/kg. This compound also gave an EC50 in [8] of 20 nM. In addition, the “(h)5-HT4(a)R % control agonist response” value in data set [8] (5-HT as control 5-HT4R agonist, n = 2) came to 59.8 ± 2.5 n = 2%. Also, the “(h)5-HT4(a)R Profile” value in data set [8] (cAMP, COS-7 cells) was “Partial agonist”. In addition, in data set [9], the “Effect on scopolamine-induced spontaneous alternation deficit” value is reported as “anti-amnesic effect was observed”. Further, in data set [5], the IC50 is 10000 nM and the “(h)5-HT6R % control antagonist response” value was 93.4 ± 1.8 n = 2%. Besides, in data set [1], the IC50 turned out to be 33.7 ± 1.7 nM. In data set [2] ((h)5-HT4R Ki, n = 3, Ki ± SD), the inhibition constant (Ki) is 210 ± 43 nM. In [10], the “Effect on spontaneous locomotor activity” value is on record as “did neither modify spontaneous locomotor activity”. In data set [6], the “cAMP production in the absence of agonist (inverse agonist activity)” value is given as “decreased cAMP production below the basal” and the “(h)5-HT6R Profile” value is “Inverse agonist”. Further, in data set [3] ((h)5-HT6R Ki, n = 3, Ki ± SD), the Ki is 219 ± 42 nM.
